One data set relates to SN12C. Briefly: Cytotoxicity against human SN12C cells assessed as growth at 10^-5 M relative to control.
The nature of data set [1]: Cytotoxicity against MDCK cells assessed as cell viability after 48 hrs by MTT assay. Type of data set: cell-based, Canis lupus familiaris. As to conditions: dog, read-out: CTD50.
Another data set deals with NCI-H226. In words: Cytotoxicity against human NCI-H226 cells assessed as growth at 10^-5 M relative to control.
A further data set relates to SF-295. Briefly: Cytotoxicity against human SF295 cells assessed as growth at 10^-5 M relative to control.
For another data set, the system named is OVCAR-3. In words: Cytotoxicity against human OVCAR3 cells assessed as growth at 10^-5 M relative to control.
A further data set has as its system SF-539. In words: Cytotoxicity against human SF539 cells assessed as growth at 10^-5 M relative to control.
The test system of the next data set is UACC-257. Briefly: Cytotoxicity against human UACC257 cells assessed as growth at 10^-5 M relative to control.
The next data set deals with MDA-MB-231. In words: Cytotoxicity against human MDA-MB-231 cells assessed as growth at 10^-5 M relative to control.
The test system of a further data set is OVCAR-4. Briefly: Cytotoxicity against human OVCAR4 cells assessed as growth at 10^-5 M relative to control.
Another data set has as its system A498. In words: Cytotoxicity against human A498 cells assessed as growth at 10^-5 M relative to control.
The next data set has as its system LOX IMVI. In words: Cytotoxicity against human LOXIMVI cells assessed as growth at 10^-5 M relative to control.
Data set [2] is described as follows: Cytotoxicity against human EKVX cells assessed as growth at 10^-5 M relative to control.
The next data set relates to NCI/ADR-RES. In words: Cytotoxicity against human NCI/ADR-RES cells assessed as growth at 10^-5 M relative to control.
The test system of the next data set is NCI-H522. Briefly: Cytotoxicity against human NCI-H522 cells assessed as growth at 10^-5 M relative to control.
The test system of another data set is COLO 205. Briefly: Cytotoxicity against human COLO205 cells assessed as growth at 10^-5 M relative to control.
The next data set relates to OVCAR-5. Briefly: Cytotoxicity against human OVCAR5 cells assessed as growth at 10^-5 M relative to control.
Another data set concerns RXF 393. Briefly: Cytotoxicity against human RXF393 cells assessed as growth at 10^-5 M relative to control.
In the next data set the test system is 786-0. Briefly: Cytotoxicity against human 786-0 cells assessed as growth at 10^-5 M relative to control.
For the next data set, the system named is NCI-H322M. Briefly: Cytotoxicity against human NCI-H322M cells assessed as growth at 10^-5 M relative to control.
The test system of a further data set is HOP-92. In words: Cytotoxicity against human HOP92 cells assessed as growth at 10^-5 M relative to control.
A further data set relates to SK-MEL-28. Briefly: Cytotoxicity against human SK-MEL-28 cells assessed as growth at 10^-5 M relative to control.
A further data set concerns SNB-19. Briefly: Cytotoxicity against human SNB19 cells assessed as growth at 10^-5 M relative to control.
Data set [3] in a line: Cytotoxicity against human Hs578T cells assessed as growth at 10^-5 M relative to control. As to conditions: Hs-578T.
In a further data set the test system is CCRF-CEM. Briefly: Cytotoxicity against human CCRF-CEM cells assessed as growth at 10^-5 M relative to control.

Where only a bound is given, the exact number is not on record here.

Take `COc1ccc(CCNc2ncnc3c2ncn3[C@H]2C[C@H]3[C@H](CO)[C@@H]2C[C@@H]3Cl)cc1`: the growth, % of control at 10 µM is 102% in the data set on SN12C; 102% with NCI-H226; 104% in the data set with SF-295; 111% in the data set with OVCAR-3; 95.1% in the data set with SF-539; 99.4% in the data set on UACC-257. For the same molecule, the growth, % of control at 10 µM was found to be 100% with MDA-MB-231; 94.3% in the data set with OVCAR-4; 99.9% in the data set with A498; 96.7% in the data set with LOX IMVI; 100% in data set [2]; 86.5% with NCI/ADR-RES. In addition, the growth, % of control at 10 µM in the data set with NCI-H522 was found to be 56.7%; with COLO 205 it was 113%; in the data set on OVCAR-5, 97.7%; in the data set on RXF 393, 104%; in the data set on 786-0 it was 101%; with NCI-H322M it was 89.2%. Further, the growth, % of control at 10 µM is 114% in the data set with HOP-92; 104% with SK-MEL-28; 107% in the data set with SNB-19; 93.6% in data set [3]; 108% in the data set with CCRF-CEM. For the same molecule, in data set [1], the CC50 at 48 h was 350 µM.
`OC[C@H]1[C@@H]2C[C@H](n3cnc4c(NCCc5ccccc5)ncnc43)[C@H]1C[C@@H]2Cl`: the growth, % of control at 10 µM in the data set on SN12C worked out at 99.9%; in the data set with OVCAR-3, 110%; with SF-539 it was 98.2%; with UACC-257, 103%; in the data set with MDA-MB-231, 104%; in the data set with OVCAR-4, 93.6%. Besides, the growth, % of control at 10 µM is 95.5% in the data set on A498; 92.7% in the data set with LOX IMVI; 88.2% in the data set on NCI/ADR-RES; 99.3% in the data set on COLO 205; 104% in the data set on OVCAR-5; 87% with RXF 393. In addition, the growth, % of control at 10 µM was found to be 97% in the data set with 786-0; 99.5% with NCI-H322M; 92.4% in the data set with HOP-92; 107% in the data set on SK-MEL-28; 107% in the data set on SNB-19; 87.6% with CCRF-CEM. For the same molecule, in data set [1], the CC50 at 48 h turned out to be 143 µM.
On to `CCOc1ncnc2c1ncn2[C@H]1C[C@H]2[C@H](CO)[C@@H]1C[C@@H]2Cl`, for which the growth, % of control at 10 µM in the data set with SN12C came out at 108%; in the data set on NCI-H226 it was 94.5%; in the data set with SF-295 it was 108%; in the data set with OVCAR-3 it was 111%; with SF-539, 102%; in the data set with UACC-257 it was 106%. Further, the growth, % of control at 10 µM in the data set with MDA-MB-231 was found to be 97.9%; in the data set on OVCAR-4 it was 108%; in the data set on A498 it was 88.8%; with LOX IMVI, 90.9%; in [2], 95.8%; in the data set with NCI/ADR-RES, 90.8%. Also, the growth, % of control at 10 µM in the data set on NCI-H522 turned out to be 92.4%; with COLO 205 it was 119%; with OVCAR-5, 92.5%; in the data set with RXF 393 it was 106%; in the data set with 786-0 it was 108%; in the data set with NCI-H322M, 89.9%. Moreover, the growth, % of control at 10 µM in the data set with HOP-92 worked out at 124%; in the data set with SK-MEL-28, 100%; in the data set with SNB-19, 115%; in data set [3] it was 108%; with CCRF-CEM, 129%. The CC50 at 48 h in data set [1] is more than 1020 µM.

Values taken from ChEMBL document CHEMBL3611975, “New carbocyclic N(6)-substituted adenine and pyrimidine nucleoside analogues with a bicyclo[2.2.1]heptane fragment as sugar moiety; synthesis, antiviral, anticancer activity and X-ray crystallography” (Bioorg Med Chem, 2015).
